Reference: BindingDB's records for doi:10.1021/acs.jmedchem.9b01509 (University of Chemistry and Technology Prague, 2020)

Target: Sarcoplasmic/endoplasmic reticulum calcium ATPase 1 (Oryctolagus cuniculus, UniProt P04191)
Test: Inhibition of rabbit SERCA1a preincubated for 10 mins followed by addition of ATP and measured after 10 mins by colorimetric method

Sequence of Sarcoplasmic/endoplasmic reticulum calcium ATPase 1 (P04191 whole entry): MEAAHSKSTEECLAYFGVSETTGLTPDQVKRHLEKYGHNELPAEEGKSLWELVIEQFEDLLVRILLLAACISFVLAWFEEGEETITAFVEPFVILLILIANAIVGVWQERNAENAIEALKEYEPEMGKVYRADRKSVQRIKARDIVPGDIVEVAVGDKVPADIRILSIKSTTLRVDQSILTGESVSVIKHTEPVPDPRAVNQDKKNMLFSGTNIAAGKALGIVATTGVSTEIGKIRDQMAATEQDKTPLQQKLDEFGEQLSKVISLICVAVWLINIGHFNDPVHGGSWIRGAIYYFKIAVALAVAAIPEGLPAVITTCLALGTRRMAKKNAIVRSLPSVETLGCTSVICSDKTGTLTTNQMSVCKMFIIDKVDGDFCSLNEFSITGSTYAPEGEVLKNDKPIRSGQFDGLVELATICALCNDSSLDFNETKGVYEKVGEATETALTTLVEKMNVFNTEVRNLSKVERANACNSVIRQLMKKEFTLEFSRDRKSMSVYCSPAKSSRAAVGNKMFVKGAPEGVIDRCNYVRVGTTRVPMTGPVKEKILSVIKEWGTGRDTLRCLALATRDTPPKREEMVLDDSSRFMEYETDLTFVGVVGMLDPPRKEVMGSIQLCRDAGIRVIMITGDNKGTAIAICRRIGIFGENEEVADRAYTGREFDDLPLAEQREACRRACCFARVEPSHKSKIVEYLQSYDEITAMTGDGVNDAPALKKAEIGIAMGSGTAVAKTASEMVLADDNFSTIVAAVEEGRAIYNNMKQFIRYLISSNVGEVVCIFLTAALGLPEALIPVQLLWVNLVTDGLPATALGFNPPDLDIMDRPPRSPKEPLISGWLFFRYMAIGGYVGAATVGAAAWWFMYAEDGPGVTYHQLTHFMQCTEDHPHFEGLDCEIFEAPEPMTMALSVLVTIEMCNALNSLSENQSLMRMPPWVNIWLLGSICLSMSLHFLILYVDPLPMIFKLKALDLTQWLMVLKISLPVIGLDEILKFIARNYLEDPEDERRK

- IC50: 15 µM
Compound: CC[C@H](C)[C@H]1O[C@]2(CC[C@@H]1C)C[C@@H]1C[C@@H](C/C=C(\C)[C@@H](O[C@H]3C[C@H](OC)[C@@H](O[C@H]4C[C@H](OC)[C@@H](O)[C@H](C)O4)[C@H](C)O3)[C@@H](C)/C=C/C=C3\CO[C@@H]4[C@H](O)C(C)=C[C@@H](C(=O)O1)[C@]34O)O2 [ABAMECTIN]
